From patent US20230165831A1, “METHOD AND COMPOSITION FOR RENDERING CANCER CELLS SUSCEPTIBLE TO TREATMENT BY TARGETED ONCOGENETIC DRIVERS” (IMPACT BIOLIFE SCIENCE, INC., priority 2021, published 2023)
Like-named read-outs stand apart in the source and are kept apart here.

Tests used:
[1] = system: ovarian cancer line SK-OV3 cells; assay: CTG (CellTiter-Glo) cell viability assay, 6×6 combo matrix, 72 h, SK-OV-3; details: SK-OV-3;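 note: luminescent signal read after CellTiter-Glo addition, cells exposed to compounds for 72 h at 37 °C under 5% CO2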
Description: (§1) To measure the cell inhibition effect of compounds and synergy effect of test articles on ten (10) cell lines using standard CTG assay.
(§2) 7) Using complete cell medium, adjust the volume of the suspension to achieve a cell concentration.
A549, T47D, SK-OV-3, MKN45, SK-Hep-1, HT-29, Capan-1, 786-O and LNCaP cell line, for compounds and vehicle groups, the seeding density of cell lines is 3000 cells/80 µL per well. For blank groups, add 100 µL medium. For PBS groups, add 100 µL PBS.
(§3) 8) Incubate the U87MG, A549, T47D, SK-OV-3, MKN45, SK-Hep-1, HT-29, Capan-1, 786-O and LNCaP cells overnight at 37° C./5% CO2.
(§4) Solid compound of cis-platinum was solubilized in PBS to a stock solution of 3.333 mM.
(§5) Final volume is 100 µL per well at this point.
(§6) 5) Incubate the plates at 37° C./5% CO2 for 72 hours.
(§7) 1) Incubate the plates at room temperature and away from light for 30 minutes.
(§8) 3) Add 100 µL /well of CellTiter-Glo® Reagent in each well. Avoid light.
(§9) 4) Mix contents for 2 minutes on an orbital shaker.
(§10) 5) Incubate plate at room temperature for 10 minutes to stabilize the luminescent signal.
6) Read plates in Envision.

[2] = system: glioblastoma line U87MG cells; assay: CTG (CellTiter-Glo) cell viability assay, 6×6 combo matrix, 72 h, U87MG; details: Homo sapiens, U-87 MG;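 note: U87MG cells seeded at 2000 per well, exposed 72 h, viability read by CellTiter-Glo luminescence, inhibition expressed relative to vehicle-treated wells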
Description: as §1, §2
U87MG cell lines, for compounds and vehicle groups, the seeding density of cell lines is 2000 cells/80 µL per well. For blank groups, add 100 µL medium. For PBS groups, add 100 µL PBS.
as §3, §4, §5, §6, §7, §8, §9, §10
6) Read plates in Envision.

[3] = system: lung adenocarcinoma line A549 cells; assay: CTG (CellTiter-Glo) cell viability assay, 6×6 combo matrix, 72 h, A549; details: for Relatively Cell inhibition of vehicle control(%): A549;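 for all read-outs here: luminescent ATP readout with CellTiter-Glo after compound exposure, used to assess growth inhibition and combination synergy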
[4] = system: breast cancer line T47D cells; assay: CTG (CellTiter-Glo) cell viability assay, 6×6 combo matrix, 72 h, T47D; details: Homo sapiens;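 note: luminescence read-out after 72 h at 37 °C under 5% CO2, with medium-only wells as blanks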
Description: as §1, §2
(§11) b. A549, T47D, SK-OV-3, MKN45, SK-Hep-1, HT-29, Capan-1, 786-O and LNCaP cell line, for compounds and vehicle groups, the seeding density of cell lines is 3000 cells/80 µL per well. For blank groups, add 100 µL medium. For PBS groups, add 100 µL PBS.
as §3, §4, §5, §6, §7, §8, §9, §10
6) Read plates in Envision.

[5] = system: colorectal cancer line HT29 cells; assay: CTG (CellTiter-Glo) cell viability assay, 6×6 combo matrix, 72 h, HT29; details: HT29;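 note: cells exposed to compounds for 72 hours at 37 °C under 5% CO2, then viability read as luminescence after adding CellTiter-Glo Reagent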
Description: as §1, §2, §11, §3, §4, §5, §6, §7, §8, §9, §10
6) Read plates in Envision.

[6] = Homo sapiens, A549, read-out: Relatively Cell inhibition of vehicle control(%)

With `O=c1c(O)c(-c2cc(O)c(O)c(O)c2)oc2cc(O)cc(O)c12` [myricetin] the “Relatively Cell inhibition of vehicle control(%)” value ([1]; Myr 4 µM only (cisplatin matrix)) was 2.94%, the “Relatively Cell inhibition of vehicle control(%)” value ([1]; Myr 4 µM only (doxorubicin matrix)) was 1.70% and the “Relatively Cell inhibition of vehicle control(%)” value ([1]; Myr 4 µM only (taxol matrix)) was 0.87%. The “Relatively Cell inhibition of vehicle control(%)” value ([1]; Myr 4 µM only (topotecan matrix)) was 3.31%, the “Relatively Cell inhibition of vehicle control(%)” value ([1]; Myr 20 µM only (cisplatin matrix)) was 9.41% and the “Relatively Cell inhibition of vehicle control(%)” value ([1]; Myr 20 µM only (doxorubicin matrix)) was 1.89%. The “Relatively Cell inhibition of vehicle control(%)” value ([1]; Myr 20 µM only (taxol matrix)) was 7.54%, the “Relatively Cell inhibition of vehicle control(%)” value ([1]; Myr 20 µM only (topotecan matrix)) was 0.29% and the “Relatively Cell inhibition of vehicle control(%)” value ([1]; Myr 100 µM only (cisplatin matrix)) was 89.47%. For the same compound, the “Relatively Cell inhibition of vehicle control(%)” value ([1]; Myr 100 µM only (doxorubicin matrix)) was 91.33%, the “Relatively Cell inhibition of vehicle control(%)” value ([1]; Myr 100 µM only (taxol matrix)) was 87.91% and the “Relatively Cell inhibition of vehicle control(%)” value ([1]; Myr 100 µM only (topotecan matrix)) was 87.18%. For the same compound, the inhibition at 0.8 µM ([2]; read-out: Relatively Cell inhibition of vehicle control(%), myricetin 0.8 µM only (cisplatin plate)) was 1.25%, the inhibition at 0.8 µM ([2]; read-out: Relatively Cell inhibition of vehicle control(%), myricetin 0.8 µM only (doxorubicin plate)) was -1.19% and the inhibition at 0.8 µM ([2]; read-out: Relatively Cell inhibition of vehicle control(%), myricetin 0.8 µM only (taxol plate)) was 2.29%. For the same compound, the inhibition at 0.8 µM ([2]; read-out: Relatively Cell inhibition of vehicle control(%), myricetin 0.8 µM only (topotecan plate)) was 3.94%, the inhibition at 4 µM ([2]; read-out: Relatively Cell inhibition of vehicle control(%), myricetin 4 µM only (cisplatin plate)) was -0.71% and the inhibition at 4 µM ([2]; read-out: Relatively Cell inhibition of vehicle control(%), myricetin 4 µM only (doxorubicin plate)) was 1.02%. The inhibition at 4 µM ([2]; read-out: Relatively Cell inhibition of vehicle control(%), myricetin 4 µM only (taxol plate)) was 0.66%, the inhibition at 4 µM ([2]; read-out: Relatively Cell inhibition of vehicle control(%), myricetin 4 µM only (topotecan plate)) was 3.52% and the inhibition at 20 µM ([2]; read-out: Relatively Cell inhibition of vehicle control(%), myricetin 20 µM only (cisplatin plate)) was 9.21%. It also gave an inhibition at 20 µM ([2]; read-out: Relatively Cell inhibition of vehicle control(%), myricetin 20 µM only (doxorubicin plate)) of 7.98%, an inhibition at 20 µM ([2]; read-out: Relatively Cell inhibition of vehicle control(%), myricetin 20 µM only (taxol plate)) of 11.1% and an inhibition at 20 µM ([2]; read-out: Relatively Cell inhibition of vehicle control(%), myricetin 20 µM only (topotecan plate)) of 8.45%. The inhibition at 100 µM ([2]; read-out: Relatively Cell inhibition of vehicle control(%), myricetin 100 µM only (cisplatin plate)) was 46.8%, the inhibition at 100 µM ([2]; read-out: Relatively Cell inhibition of vehicle control(%), myricetin 100 µM only (doxorubicin plate)) was 32.3% and the inhibition at 100 µM ([2]; read-out: Relatively Cell inhibition of vehicle control(%), myricetin 100 µM only (taxol plate)) was 45.7%. The inhibition at 100 µM ([2]; read-out: Relatively Cell inhibition of vehicle control(%), myricetin 100 µM only (topotecan plate)) was 43.4%, the inhibition at 0.8 µM [3, 6] was -3.15% and the inhibition at 4 µM [3, 6] was 0.85%. The inhibition at 20 µM [3, 6] was 7.42%, the inhibition at 100 µM [3, 6] was 40.3% and the “Relatively Cell inhibition of vehicle control(%)” value ([3]; Myr 0.8 µM only (taxol matrix)) was -0.98%. For the same compound, the “Relatively Cell inhibition of vehicle control(%)” value ([3]; Myr 4 µM only (taxol matrix)) was 3.22%, the “Relatively Cell inhibition of vehicle control(%)” value ([3]; Myr 20 µM only (taxol matrix)) was 9.01% and the “Relatively Cell inhibition of vehicle control(%)” value ([3]; Myr 100 µM only (taxol matrix)) was 41.11%. The inhibition at 0.8 µM ([4]; read-out: Relatively Cell inhibition of vehicle control(%), T47D, 0.8 µM myricetin only (cisplatin 0)) was -1.72%, the inhibition at 0.8 µM ([4]; read-out: Relatively Cell inhibition of vehicle control(%), T47D, 0.8 µM myricetin only (doxorubicin 0)) was 8.68% and the inhibition at 0.8 µM ([4]; read-out: Relatively Cell inhibition of vehicle control(%), T47D, 0.8 µM myricetin only (taxol 0)) was 6.31%. The inhibition at 0.8 µM ([4]; read-out: Relatively Cell inhibition of vehicle control(%), T47D, 0.8 µM myricetin only (topotecan 0)) was 1.93%, the inhibition at 4 µM ([4]; read-out: Relatively Cell inhibition of vehicle control(%), T47D, 4 µM myricetin only (cisplatin 0)) was -0.88% and the inhibition at 4 µM ([4]; read-out: Relatively Cell inhibition of vehicle control(%), T47D, 4 µM myricetin only (doxorubicin 0)) was 1.01%. For the same compound, the inhibition at 4 µM ([4]; read-out: Relatively Cell inhibition of vehicle control(%), T47D, 4 µM myricetin only (taxol 0)) was 0.2%, the inhibition at 4 µM ([4]; read-out: Relatively Cell inhibition of vehicle control(%), T47D, 4 µM myricetin only (topotecan 0)) was -2.25% and the inhibition at 20 µM ([4]; read-out: Relatively Cell inhibition of vehicle control(%), T47D, 20 µM myricetin only (cisplatin 0)) was 2.08%. It also gave an inhibition at 20 µM ([4]; read-out: Relatively Cell inhibition of vehicle control(%), T47D, 20 µM myricetin only (doxorubicin 0)) of 8.28%, an inhibition at 20 µM ([4]; read-out: Relatively Cell inhibition of vehicle control(%), T47D, 20 µM myricetin only (taxol 0)) of 5.67% and an inhibition at 20 µM ([4]; read-out: Relatively Cell inhibition of vehicle control(%), T47D, 20 µM myricetin only (topotecan 0)) of 3.54%. For the same compound, the inhibition at 100 µM ([4]; read-out: Relatively Cell inhibition of vehicle control(%), T47D, 100 µM myricetin only (cisplatin 0)) was 25.4%, the inhibition at 100 µM ([4]; read-out: Relatively Cell inhibition of vehicle control(%), T47D, 100 µM myricetin only (doxorubicin 0)) was 24.5% and the inhibition at 100 µM ([4]; read-out: Relatively Cell inhibition of vehicle control(%), T47D, 100 µM myricetin only (taxol 0)) was 30%. For the same compound, the inhibition at 100 µM ([4]; read-out: Relatively Cell inhibition of vehicle control(%), T47D, 100 µM myricetin only (topotecan 0)) was 22.2%, the “Relatively Cell inhibition of vehicle control(%)” value ([5]; Myr 0.8 µM only (Cis 0)) was 3.87% and the “Relatively Cell inhibition of vehicle control(%)” value ([5]; Myr 0.8 µM only (Dox 0)) was -1.09%. For the same compound, the “Relatively Cell inhibition of vehicle control(%)” value ([5]; Myr 0.8 µM only (Tax 0)) was -1.36%, the “Relatively Cell inhibition of vehicle control(%)” value ([5]; Myr 0.8 µM only (Top 0)) was -0.48% and the “Relatively Cell inhibition of vehicle control(%)” value ([5]; Myr 4 µM only (Cis 0)) was 6.56%. The “Relatively Cell inhibition of vehicle control(%)” value ([5]; Myr 4 µM only (Dox 0)) was -0.67%, the “Relatively Cell inhibition of vehicle control(%)” value ([5]; Myr 4 µM only (Tax 0)) was 0.80% and the “Relatively Cell inhibition of vehicle control(%)” value ([5]; Myr 4 µM only (Top 0)) was 3.33%. For the same compound, the “Relatively Cell inhibition of vehicle control(%)” value ([5]; Myr 20 µM only (Cis 0)) was 24.55%, the “Relatively Cell inhibition of vehicle control(%)” value ([5]; Myr 20 µM only (Dox 0)) was 23.37% and the “Relatively Cell inhibition of vehicle control(%)” value ([5]; Myr 20 µM only (Tax 0)) was 32.84%. For the same compound, the “Relatively Cell inhibition of vehicle control(%)” value ([5]; Myr 20 µM only (Top 0)) was 24.77%, the “Relatively Cell inhibition of vehicle control(%)” value ([5]; Myr 100 µM only (Cis 0)) was 90.42% and the “Relatively Cell inhibition of vehicle control(%)” value ([5]; Myr 100 µM only (Dox 0)) was 74.39%. For the same compound, the “Relatively Cell inhibition of vehicle control(%)” value ([5]; Myr 100 µM only (Tax 0)) was 88.39% and the “Relatively Cell inhibition of vehicle control(%)” value ([5]; Myr 100 µM only (Top 0)) was 87.04%.
